Values belong to the compound of their own block, whether it stands above or below them. *1 amine or outer side, *2 acyl side, *3 side chain or, on linkers, in order; H or OH if unused. Where a SMILES comes first, the peptide text is derived from it. Bridges are numbered along the chain shown (N, C = ends). Roman numbers before positions name the chains, in order. [ ]: non-standard residue; d: D form. Actinocin(9to1) = Cc1c2oc3c(C)ccc(C(=O)[*:1])c3nc-2c(C(=O)[*:2])c(N)c1=O; NMeV = CN[C@H](C(=O)O)C(C)C; Sar = CNCC(=O)O
How the values were obtained:
[1] = test system: CP (DNA, duplex) AGGTTGGTGAGTGATTGGAGGTT/AATCACTCACCAACCT; assay: fluorescence turn-on; conditions: 20 nM CP; site size 2.4; per base
[2] = test system: CP (DNA, duplex) AGGTTGGTGAGTGATTGGAGGTT/AATCACTCACCAACCT; assay: BIND strand displacement fluorescence, McGhee-von Hippel fit; conditions: none (no metal cations), 1x TE, 37 °C, 20 nM CP, 10 nM invader I, per base
[3] = test system: CP (C 28nt / P 21nt) (DNA, duplex) ACAAGAGGTTGGTGAGTGATTGGAGGTT/AATCACTCACCAACCTCTTGT; assay: BIND strand displacement fluorescence; conditions: none (no metal cations); 1x TE, 37 °C; critical binder concentration scales with duplex length
[4] = test system: CP (C 18nt / P 11nt) (DNA, duplex) GGTGAGTGATTGGAGGTT/AATCACTCACC; assay: BIND strand displacement fluorescence; conditions: none (no metal cations); 1x TE, 37 °C; critical binder concentration scales with duplex length
[5] = test system: sink probe 5'-GCGCC-3' (DNA, hairpin) CGCGCGGCAAAAAGCCGCGCG; assay: competitive BIND, sink against CP; conditions: none (no metal cations); 1x TE, 37 °C; sink in up to 100-fold excess over CP
[6] = test system: CP (DNA, duplex) AGGTTGGTGAGTGATTGGAGGTT/AATCACTCACCAACCT; assay: BIND strand displacement fluorescence; conditions: none (no metal cations); 1x TE, 37 °C; 20 nM CP, 10 nM invader I
[7] = test system: sink probe 5'-TAAAT-3' (DNA, hairpin) CGATTTACAAAAAGTAAATCG; assay: competitive BIND, sink against CP; conditions: none (no metal cations); 1x TE, 37 °C; sink in up to 100-fold excess over CP
[8] = test system: CP (25% GC) (DNA, duplex) AATTCGATTAGCAATTGGAGGTT/AATTGCTAATCGAATT; assay: BIND strand displacement fluorescence, McGhee-von Hippel fit; conditions: none (no metal cations); 1x TE, 37 °C; 20 nM CP, 10 nM invader I; per base
[9] = test system: CP (75% GC) (DNA, duplex) GGGCTACGCGATGCGCGGAGGTT/GCGCATCGCGTAGCCC; assay: as above; conditions: none (no metal cations); 1x TE, 37 °C; 20 nM CP, 10 nM invader I; per base

binding [6]: weak
Structure (SMILES): [Ru+2].c1cnc2c(c1)ccc1cccnc12.c1cnc2c(c1)ccc1cccnc12.c1cnc2c(c1)ccc1cccnc12

binding [6]: no
Structure (SMILES): c1ccc(C[n+]2cccc3ccccc32)cc1

Further lines, the compound ahead of its results:

Structure (SMILES): CCCN(CCCN(C)C)c1cc(C=C2Sc3ccccc3N2C)c2ccccc2[n+]1-c1ccccc1
Kd [1]: 9.3 nM
Kd ([2]; site size 2.6, b11 prints 7.1 nM): 7.0 nM
binding [3]: yes
binding [4]: yes

Structure (SMILES): CCN(CC)CCn1nc2c3c(cccc3c1=O)-c1ccccc1-2
Kd ([2]; site size 1.3): 212 nM

Structure (SMILES): Cn1cc(NC(=O)c2cc(NC(=O)CN=C(N)N)cn2C)cc1C(=O)NCCC(=N)N
binding [5]: no

Structure (SMILES): Cc1c2oc3c(C)ccc(C(=O)N[C@@H]4C(=O)N[C@H](C(C)C)C(=O)N5CCC[C@H]5C(=O)N(C)CC(=O)N(C)[C@@H](C(C)C)C(=O)O[C@@H]4C)c3nc-2c(C(=O)N[C@@H]2C(=O)N[C@H](C(C)C)C(=O)N3CCC[C@H]3C(=O)N(C)CC(=O)N(C)[C@@H](C(C)C)C(=O)O[C@@H]2C)c(N)c1=O (I: T[dV]P[Sar][NMeV] / II: T[dV]P[Sar][NMeV]; ester I:1-I:C, II:1-II:C; linker I:N-II:N via Actinocin(9to1))
binding [7]: no
Kd [8]: 983 nM
Kd [9]: 83 nM

From paper PMC10352304 (2023)
